{"source": "patent US6485929B1", "about": "“Method for inhibiting CD95-independent apoptosis in AIDS” (Deutsches Krebsforschungzentrum Stiftung des offentlichen …, priority 1998, dated 2002)", "system": "HPB-ALL cells", "assay": "Inhibition of CD95-independent apoptosis induced by anti-CXCR4 antibody (12G5) in HPB-ALL cells", "format": "cell-based", "settings": "HPB-ALL cells incubated with 250 nM SDF-1α at 37° C. for 30 minutes, then induction with anti-CXCR4 antibody 12G5", "method": "1×10^5 HPB-ALL cells are incubated with 5 μg/ml mouse anti-CD4 antibody (HP2/6) and mouse anti CXCR4 antibody (12G5), respectively, at 37° C. for 15 minutes. Then, the bound antibodies are reacted with sheep anti-mouse antibodies (100 μg/ml, Boehringer). Apoptosis detection is carried out in which an FSC/SSC analysis is run in an FACScan cytometer at various times (cf. FIG. 1). HPB-ALL cells are incubated with 250 nM SDF-1α at 37° C. for 30 minutes. The cells are then subjected to an apoptosis induction using the mouse anti-CXCR4 antibody (12G5), as described above under item I. (a).", "data": [{"substance": "SDF-1α", "values": [{"measurement": "Prevention of induction of CD95-independent apoptosis", "value": "can be prevented"}]}]}
